Four molecules from US8153359B2, “Toxicity assay based on human blastocyst-derived stem cells and progenitor cells” (Cellartis AB, priority 2006, dated 2012) can be followed below.

Series [1] concerns hBS cells. The experiment in a line: Cytotoxicity test, viability by ATP content (CellTiterGlo), hBS cells. To be noted: hBS cells set to 1. The format is cell-based, human. In general terms: Cellular ATP, detected with luciferase, serves as a proxy for viable cell number.
The subject of series [2] is hBS MPs. The experiment in a line: Cytotoxicity test, viability by ATP content, hBS MPs (progenitor cells). The format is cell-based, human. The conditions noted are these: relative to hBS cells = 1.
Series [3] deals with human foreskin fibroblasts (hFFs). Briefly: Cytotoxicity test, viability by ATP content, hFFs. The format is cell-based. The conditions noted are these: relative to hBS cells = 1.
Series [4] has as its system hBS cells. Briefly: Cytotoxicity test, viability by Resazurin reduction, hBS cells. The format is cell-based, human. The conditions noted are these: hBS cells set to 1.
The test system of series [5] is hBS MPs. The experiment in a line: Cytotoxicity test, viability by Resazurin reduction, hBS MPs (progenitor cells). Format: cell-based, human. To be noted: relative to hBS cells = 1. For orientation: Alamar Blue is a resazurin reagent that responds to reducing activity.
In series [6] the test system is human foreskin fibroblasts (hFFs). Briefly: Cytotoxicity test, viability by Resazurin reduction, hFFs. Format: cell-based. To be noted: relative to hBS cells = 1.
The test system of series [7] is hBS cells, hBS MPs and hFFs. Briefly: Cytotoxicity test, comparison over all cell types (hBS cells, progenitor cells, hFF). The conditions noted are these: FIG. 3.

As for `O=c1[nH]cc(F)c(=O)[nH]1` [5-FU, 5-Fluorouracil], in the series with hBS cells [1], the “Ratio between the IC50 values measured using the ATP assay, hBS cells” value was 1. Further, the “Ratio between the IC50 values measured using the ATP assay, Progenitors” value in the series on hBS MPs [2] is on record as 2. In addition, in series [3], the “Ratio between the IC50 values measured using the ATP assay, hFF” value is 7. Moreover, the “Ratio between the IC50 values measured using the Rezasurin assay, hBS cells” value in the series with hBS cells [4] stood at 1. Further, the “Ratio between the IC50 values measured using the Rezasurin assay, Progenitors” value with hBS MPs [5] is reported as 1. Besides, the “Ratio between the IC50 values measured using the Rezasurin assay, hFF” value in series [6] is 2.5.

For `CC1=C(/C=C/C(C)=C/C=C/C(C)=C\C(=O)O)C(C)(C)CCC1` [13CRA, 13-cis retinoic acid], in the series on hBS cells [1], the “Ratio between the IC50 values measured using the ATP assay, hBS cells” value is reported as 1. Besides, in the series with hBS MPs [2], the “Ratio between the IC50 values measured using the ATP assay, Progenitors” value is 0.000025. For the same molecule, the “Ratio between the IC50 values measured using the ATP assay, hFF” value in series [3] is on record as >6. For the same molecule, the “Ratio between the IC50 values measured using the Rezasurin assay, hBS cells” value in the series with hBS cells [4] turned out to be 1. In the series on hBS MPs [5], the “Ratio between the IC50 values measured using the Rezasurin assay, Progenitors” value was determined as 0.000001. In series [6], the “Ratio between the IC50 values measured using the Rezasurin assay, hFF” value is given as >7.

On to `CC1=C(/C=C/C(C)=C/C=C/C(C)=C/C(=O)O)C(C)(C)CCC1` [ATRA, all-trans retinoic acid], for which, in the series with hBS cells [1], the “Ratio between the IC50 values measured using the ATP assay, hBS cells” value is on record as 1. Further, in the series on hBS MPs [2], the “Ratio between the IC50 values measured using the ATP assay, Progenitors” value came out at 0.0001. In addition, the “Ratio between the IC50 values measured using the ATP assay, hFF” value in series [3] is >4. Moreover, the “Ratio between the IC50 values measured using the Rezasurin assay, hBS cells” value in the series on hBS cells [4] stood at 1. Moreover, the “Ratio between the IC50 values measured using the Rezasurin assay, Progenitors” value in the series on hBS MPs [5] is listed as 0.0005. Also, the “Ratio between the IC50 values measured using the Rezasurin assay, hFF” value in series [6] was >6.

Consider `O=C1NS(=O)(=O)c2ccccc21.[Na]` [Saccharin, Sodium Saccharin], for which the toxic reaction result in series [7] is “no toxic reaction”.
